This is an account of results in ChEMBL document CHEMBL1201862, “PubChem BioAssay data set” (2004).

Structures are written as SMILES.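 Test compounds were applied to cells in 96-well plates for 48 hours at 5 doses. GI50 = concentration required for 50% inhibition of growth.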 Calls of active or inactive are those of the source. No stated cut-off is given here; in the data, active = GI50 up to about 1.1 µM and inactive = higher.

Experiment in all cases: growth of human tumour cells (NCI), 48 h
For assay [1], the system named is SF-295.
For assay [2], the system named is OVCAR-4.
Assay [3] concerns M14.
Assay [4] relates to OVCAR-8.
For assay [5], the system named is HCT-15.
For assay [6], the system named is 786-0.
In assay [7] the test system is A549.
Assay [8] deals with UO-31.
The test system of assay [9] is COLO 205.
For assay [10], the system named is A498.
The test system of assay [11] is UACC-257.
The subject of assay [12] is SK-MEL-2.
The subject of assay [13] is OVCAR-3.
Assay [14] concerns SNB-75.
For assay [15], the system named is SK-MEL-28.
The test system of assay [16] is SNB-19.
The subject of assay [17] is UACC-62.
The subject of assay [18] is HCT-116.
Assay [19] deals with PC-3.

`CC1C2C=C(O)C(=O)C(C2=O)C1c1ccccc1` (stereo not drawn): the GI50 in assay [1] is > 100 µM (inactive); in assay [2], > 100 µM (inactive); in assay [3] it was > 100 µM (inactive); in assay [4] it was > 100 µM (inactive); in assay [5], more than 100 µM; in assay [6] it was > 100 µM (inactive). In addition, the GI50 in assay [7], in [8], in assay [9], in [10], in [11] and in assay [12] was > 100 µM (inactive) throughout. Besides, the GI50 is > 100 µM (inactive) in assay [13]; 82.6 µM (inactive) in assay [14]; > 100 µM (inactive) in [15]; > 100 µM (inactive) in assay [16]; > 100 µM (inactive) in assay [17].

Take `Cc1ccccc1-n1c(N)c(-c2nc3ccccc3[nH]2)sc1=S`: the GI50 is 22.6 µM (inactive) in [1]; 28.8 µM (inactive) in assay [2]; 20.5 µM (inactive) in [3]; 32.8 µM (inactive) in assay [4]; 34.7 µM in assay [5]; 30.1 µM (inactive) in [6]. In addition, the GI50 was 31.3 µM (inactive) in assay [7]; 23.8 µM (inactive) in assay [8]; 22.6 µM (inactive) in [9]; 40.1 µM (inactive) in assay [10]; 19.3 µM (inactive) in assay [11]; 23.9 µM (inactive) in [12]. Also, the GI50 in assay [13] was 20 µM (inactive); in assay [14], 29.4 µM (inactive); in assay [15] it was 20 µM (inactive); in [16], 24.9 µM (inactive); in assay [17], 18.8 µM (inactive).

`c1cc2ccc1C1NCCCN1CCN1CCCNC1c1ccc(cc1)C1NCCCN1CCN1CCCNC21` (stereo not drawn): the GI50 in [1] was > 100 µM (inactive); in assay [2] it was > 100 µM (inactive); in assay [3], 99.8 µM (inactive); in [4] it was > 100 µM (inactive); in assay [18], 42.6 µM (inactive); in assay [5], 61.8 µM. Moreover, the GI50 was > 100 µM (inactive) in assay [6]; > 100 µM (inactive) in assay [7]; > 100 µM (inactive) in assay [8]; 54.3 µM (inactive) in assay [9]; > 100 µM (inactive) in assay [10]; > 100 µM (inactive) in assay [11]. Besides, the GI50 in assay [12] was > 100 µM (inactive); in assay [13], 50.7 µM (inactive); in [14], > 100 µM (inactive); in [15], > 100 µM (inactive); in assay [16], > 100 µM (inactive); in assay [17], > 100 µM (inactive).

With `COc1ccc(OC)c(/C(C)=N/NC(N)=S)c1`, the GI50 in [1] was > 100 µM (inactive); in [2], > 100 µM (inactive); in [3] it was > 100 µM (inactive); in [4] it was > 100 µM (inactive); in [18], > 100 µM (inactive); in [5] it was more than 100 µM. The GI50 in assay [6], in assay [7], in assay [8], in assay [9], in assay [10] and in assay [11] was > 100 µM (inactive) in each case. Moreover, the GI50 in [12], in [13], in [14], in assay [15] and in [17] was > 100 µM (inactive) each time.

In the case of `COC(=O)C1CC2c3c(c4ccccc4n3C)CC(C1=O)N2C` (stereo not drawn), the GI50 is > 100 µM (inactive) in assay [1]; 37.3 µM (inactive) in [2]; 37.8 µM (inactive) in assay [3]; 34.5 µM (inactive) in [4]; 33 µM (inactive) in assay [18]; 22.3 µM in assay [5]. The GI50 was 47.5 µM (inactive) in [6]; 36.4 µM (inactive) in assay [7]; 21.4 µM (inactive) in assay [8]; 17.3 µM (inactive) in [9]; 28.2 µM (inactive) in assay [10]; 32.8 µM (inactive) in assay [11]. Besides, the GI50 in [12] is > 100 µM (inactive); in [13], 34.8 µM (inactive); in assay [14], 31.5 µM (inactive); in assay [15] it was 51.9 µM (inactive); in [16] it was 75.9 µM (inactive); in assay [17], 49.5 µM (inactive).

Take `CC(C)N1CN(C(C(=O)N[C@@H]2C(=O)N3C2SC(C)(C)C3C(=O)O)c2ccc(O)cc2)CSC1=S` (stereo partly drawn): the GI50 in [1] was > 100 µM (inactive); in assay [2], > 100 µM (inactive); in assay [3], > 100 µM (inactive); in [4], > 100 µM (inactive); in assay [18] it was > 100 µM (inactive); in [5], 43 µM. Further, the GI50 in assay [6] is > 100 µM (inactive); in [8] it was > 100 µM (inactive); in assay [9], 33.8 µM (inactive); in [10], > 100 µM (inactive); in assay [11], > 100 µM (inactive); in assay [12], > 100 µM (inactive). Further, the GI50 in assay [13] is 41.1 µM (inactive); in assay [14], > 100 µM (inactive); in assay [15], > 100 µM (inactive); in [16] it was > 100 µM (inactive); in [17], > 100 µM (inactive).

As to `CC1=NC2(C(=O)O)C3(C(=O)O)N=C(C)OC3(C(F)(F)F)C2(C(F)(F)F)O1` (stereo not drawn), the GI50 in [1] was > 100 µM (inactive); in assay [2] it was > 100 µM (inactive); in assay [3], > 100 µM (inactive); in [4], > 100 µM (inactive); in [18], > 100 µM (inactive); in assay [5], more than 10 µM. In addition, the GI50 in assay [6], in assay [7], in [8], in assay [9], in assay [10] and in assay [11] was > 100 µM (inactive) each time. Moreover, the GI50 in assay [12], in assay [13], in assay [14], in [15], in [16] and in assay [17] was > 100 µM (inactive) in each case.

Turning to `O=C(CC(=O)N1N=C(n2ccc3ccccc32)CC1c1ccccc1)Nc1ccccc1Cl` (stereo not drawn), the GI50 in assay [1] was > 100 µM (inactive); in [2], > 100 µM (inactive); in assay [3] it was > 100 µM (inactive); in [4] it was > 100 µM (inactive); in assay [18], > 100 µM (inactive); in assay [5], more than 100 µM. The GI50 in assay [6], in [7], in assay [8], in [9], in assay [10] and in [11] was > 100 µM (inactive) each time. Besides, the GI50 in assay [12], in assay [13], in assay [14], in [15], in [16] and in assay [17] was > 100 µM (inactive) in each case.

Consider `CC(C)OP(=O)(OC(C)C)/C(=N/Nc1ccc([N+](=O)[O-])cc1)Nc1ccccc1`, for which the GI50 was 28.4 µM (inactive) in [2]; 20.2 µM (inactive) in assay [3]; 34.8 µM (inactive) in assay [4]; 16.4 µM (inactive) in assay [18]; 32.4 µM in [5]; 24.1 µM (inactive) in [6]. Also, the GI50 in assay [7] was 23.1 µM (inactive); in assay [8], 77.3 µM (inactive); in assay [9], 21.6 µM (inactive); in assay [10], > 10 µM (inactive); in assay [11], 21 µM (inactive); in assay [12] it was 40.1 µM (inactive). For the same molecule, the GI50 is 32.2 µM (inactive) in assay [13]; 36.6 µM (inactive) in [14]; 23.9 µM (inactive) in assay [15]; 36.7 µM (inactive) in [16]; 10.8 µM (inactive) in assay [17].

For `O=C(NCCCCNc1cccccc1=O)OCc1ccccc1`, the GI50 is > 100 µM (inactive) in [1]; > 100 µM (inactive) in assay [2]; > 100 µM (inactive) in assay [3]; 54 µM (inactive) in assay [4]; > 100 µM (inactive) in assay [18]; more than 100 µM in [5]. In addition, the GI50 was > 100 µM (inactive) in [6]; > 100 µM (inactive) in [7]; 58.5 µM (inactive) in assay [8]; > 100 µM (inactive) in assay [9]; > 100 µM (inactive) in [10]; > 100 µM (inactive) in [11]. In addition, the GI50 in assay [12], in assay [13], in assay [14], in [15], in [16] and in [17] was > 100 µM (inactive) in each case.

As for `O=S1(=O)OCCOS(=O)(=O)C1(Br)Cc1ccccc1`, the GI50 in assay [1] is > 100 µM (inactive); in assay [2] it was > 100 µM (inactive); in assay [3], > 100 µM (inactive); in assay [4], > 100 µM (inactive); in assay [18], > 100 µM (inactive); in [5], more than 100 µM. In addition, the GI50 in assay [6], in assay [7], in assay [8], in assay [9], in [10] and in [11] was > 100 µM (inactive) in each case. Further, the GI50 in assay [12] was > 100 µM (inactive); in assay [13], > 100 µM (inactive); in [14], 33 µM (inactive); in [15], > 100 µM (inactive); in assay [16] it was > 100 µM (inactive); in assay [17] it was > 100 µM (inactive).

For `O=c1[nH]c(=O)n(CCOc2ccccc2)cc1Nc1ccccc1`, the GI50 in [19] was > 100 µM (inactive); in assay [1] it was 41.8 µM (inactive); in assay [3], > 100 µM (inactive); in [18], > 100 µM (inactive); in [5], more than 100 µM; in assay [6] it was 61.2 µM (inactive). Moreover, the GI50 in assay [7], in [8], in assay [9], in assay [10], in assay [11] and in assay [13] was > 100 µM (inactive) in each case. Besides, the GI50 in assay [15], in assay [16] and in [17] was > 100 µM (inactive) in each case.
